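These data come from cells grown in 96-well plates and exposed to compound for 48 hours at five concentrations. GI50 is the concentration that inhibits growth by half.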 Activity calls are given as the source filed them. Rule as the data show it: active = GI50 up to about 1.1 µM and inactive = higher.
Experiments:
Test in all cases: inhibition of tumour cell growth, NCI panel, 48 h
XF498 = tested on: XF498
M19-MEL = tested on: M19-MEL
LXFL 529 = tested on: LXFL 529
KM-20L2 = tested on: KM-20L2
HOP-18 = tested on: HOP-18
DMS-273 = tested on: DMS-273
DMS-114 = tested on: DMS-114
SNB-78 = tested on: SNB-78
RXF 631 = tested on: RXF 631

Row | SMILES | GI50 (XF498) | GI50 (M19-MEL) | GI50 (LXFL 529) | GI50 (KM-20L2) | GI50 (HOP-18) | GI50 (DMS-273) | GI50 (DMS-114) | GI50 (SNB-78) | GI50 (RXF 631)
1 | Cc1n[nH]c(=S)n(C)c1=S | > 100 µM (inactive) | > 100 µM (inactive) | > 100 µM (inactive) | > 100 µM (inactive) | 27.2 µM (inactive) | > 100 µM (inactive) | > 100 µM (inactive) | > 100 µM (inactive) | > 100 µM (inactive)
2 | CC(C)(CN1CCCCC1)C(=O)/C=C/c1ccc(/C=C/C(=O)C(C)(C)CN2CCCCC2)cc1 | 0.344 µM (active) | 0.982 µM (active) | 0.262 µM (active) | 0.644 µM (active) | 1.28 µM (inactive) | 0.361 µM (active) | 0.701 µM (active) | 2.46 µM (inactive) | 
3 | CC1=C(C(=O)CC(=O)C(=O)Nc2ccccc2C)Sc2ccccc2N1 |  | > 100 µM (inactive) |  | > 81.3 µM (inactive) | > 100 µM (inactive) | > 100 µM (inactive) |  | > 100 µM (inactive) | 
4 | CN(C)C(=S)/N=c1\ssc(=S)n1Cc1ccncc1 | 5.66 µM (inactive) | 10.7 µM (inactive) | 16.3 µM (inactive) | 32.9 µM (inactive) | 17.7 µM (inactive) | 16.4 µM (inactive) | 2.39 µM (inactive) | > 100 µM (inactive) | 3.8 µM (inactive)
5 | CC1CC[C@]2(C(=O)O)CCC3(C)C(=CCC4[C@@]5(C)CC[C@H](OS(=O)(=O)c6ccccc6)C(C)(C)C5CC[C@]43C)[C@@H]2[C@H]1C (stereo partly specified) | 36.4 µM (inactive) | > 100 µM (inactive) | 69.8 µM (inactive) |  | 37.9 µM (inactive) | > 100 µM (inactive) | 39.2 µM (inactive) | > 100 µM (inactive) | > 100 µM (inactive)
6 | COc1cc([C@@H]2c3cc4c(cc3[C@@H](NC(=O)c3ccc([N+](=O)[O-])cc3)C3COC(=O)[C@@H]32)OCO4)cc(OC)c1O (stereo partly specified) | 0.166 µM (active) | 1.25 µM (inactive) | 3.13 µM (inactive) | 0.615 µM (active) | 67.8 µM (inactive) | 0.111 µM (active) | 0.31 µM (active) | 1.92 µM (inactive) | 1.02 µM (active)
7 | COc1ccc(N2C(=O)C3CC(c4ccc(Br)cc4)c4c([nH]c5ccccc45)C3C2=O)cc1 (stereo unspecified) | 13 µM (inactive) | 10.2 µM (inactive) | 4.07 µM (inactive) | 9.46 µM (inactive) | 7.82 µM (inactive) | 6.41 µM (inactive) | 6.93 µM (inactive) | 14.8 µM (inactive) | 
8 | CN(C)CCC(/C=C/c1ccccc1)=N\Nc1ccc(Cl)cc1Cl |  | 15.6 µM (inactive) | 10.9 µM (inactive) |  | 10.2 µM (inactive) | 13.2 µM (inactive) | 14.8 µM (inactive) | 13.5 µM (inactive) | 
9 | NC1=NN(c2ccccc2)C(=O)C1/C(=N\NC(=O)c1cc2ccccc2cc1O)C(=O)Nc1ccc(Cl)cc1 (stereo unspecified) | 34.6 µM (inactive) | 26.4 µM (inactive) | 22.2 µM (inactive) | 32.7 µM (inactive) | 25.4 µM (inactive) | 20.2 µM (inactive) | 17.9 µM (inactive) | 34.8 µM (inactive) | 49.1 µM (inactive)
10 | CCCCc1c2c([n+]([O-])c3c1CCCC3)CCCC2 | > 100 µM (inactive) | 66.8 µM (inactive) | > 100 µM (inactive) | > 100 µM (inactive) |  | 96.6 µM (inactive) | > 100 µM (inactive) |  | 
11 | Oc1ccc(Br)cc1/C=N/c1ccc(Oc2ccc(/N=C/c3cc(Br)ccc3O)cc2)cc1 |  | > 19.6 µM (inactive) | > 19.6 µM (inactive) | > 19.6 µM (inactive) | > 19.6 µM (inactive) | > 19.6 µM (inactive) | > 19.6 µM (inactive) |  | 
12 | COc1ccc(/C=C\c2cc(OC)c(OC)c(OC)c2)cc1 | 0.000741 µM (active) | < 0.01 µM (active) | 0.000507 µM (active) | 0.000428 µM (active) | 0.973 µM (active) | 0.000273 µM (active) | 0.0013 µM (active) | 0.000116 µM (active) | < 0.01 µM (active)
13 | COc1cc(/C=C/c2ccc(OC)c(O)c2)cc(OC)c1 | 3.37 µM (inactive) | 6.41 µM (inactive) | 6.03 µM (inactive) | 20.4 µM (inactive) |  | 15.2 µM (inactive) | 3.33 µM (inactive) | 5.64 µM (inactive) | 
14 | CCO/C([O-])=C(\C(=O)c1ccc([N+](=O)[O-])cc1)[n+]1c(C)n(C)c2ccccc21 |  | > 100 µM (inactive) | > 100 µM (inactive) | > 100 µM (inactive) | > 100 µM (inactive) | > 100 µM (inactive) | > 100 µM (inactive) | > 100 µM (inactive) | 
15 | CC1(C)C(=O)C(=Cc2ccco2)C1=O | > 100 µM (inactive) | > 100 µM (inactive) | > 100 µM (inactive) |  | > 100 µM (inactive) |  | > 100 µM (inactive) | > 100 µM (inactive) | > 100 µM (inactive)
16 | CC(=O)OC1OC2C(NC(=O)OC(C)(C)C)C1CC2(OCc1ccccc1)OCc1ccccc1 (stereo unspecified) | 18.9 µM (inactive) | 25.8 µM (inactive) | 20 µM (inactive) | 19.9 µM (inactive) | 19.5 µM (inactive) | 18.6 µM (inactive) | 18.7 µM (inactive) | 37.6 µM (inactive) | 33.4 µM (inactive)
17 | O=C(NC1C2CC3CC(C2)CC1C3)/C(Cl)=C1/Sc2ccccc2NC1=O (stereo unspecified) | > 100 µM (inactive) | > 91.6 µM (inactive) | 42.5 µM (inactive) | > 100 µM (inactive) | > 100 µM (inactive) | > 49 µM (inactive) | > 65.5 µM (inactive) | > 100 µM (inactive) | 
18 | N#Cc1c(C[n+]2ccccc2)c2ccccc2oc1=O | > 100 µM (inactive) | > 100 µM (inactive) | > 100 µM (inactive) | > 100 µM (inactive) |  | > 100 µM (inactive) | > 100 µM (inactive) | > 100 µM (inactive) | 
19 | Cc1cc2nc3c(C(OC4OC(CO)C(O)C(O)C4O)C(O)CO)nn(-c4ccc(F)cc4)c3nc2cc1C (stereo unspecified) | > 100 µM (inactive) | > 100 µM (inactive) | > 100 µM (inactive) | > 100 µM (inactive) |  |  | > 100 µM (inactive) | > 100 µM (inactive) | > 100 µM (inactive)
20 | N#Cc1c2ccccc2c(Cc2ccc3c(c2)OCCOCCOCCOCCOCCO3)c2ccccc12 | 10.5 µM (inactive) |  | 5.46 µM (inactive) | 10 µM (inactive) | 10.1 µM (inactive) | 4.68 µM (inactive) | 10.4 µM (inactive) | 9.14 µM (inactive) | 
21 | CCOc1ccc2c(c1)[n+]([O-])c(-c1ccc(Cl)cc1)c(N)[n+]2[O-] |  |  | 87.7 µM (inactive) | > 100 µM (inactive) | > 100 µM (inactive) | > 100 µM (inactive) | 68.7 µM (inactive) | > 100 µM (inactive) | 
22 | CN(C)c1n/c(=N/Cc2ccco2)ss1 | > 100 µM (inactive) | 5.05 µM (inactive) | 38.9 µM (inactive) | > 100 µM (inactive) | > 100 µM (inactive) | 4.53 µM (inactive) | 3.33 µM (inactive) | > 58.9 µM (inactive) | 
23 | Cc1cc([N+](=O)[O-])ccc1Sc1c2ccccc2nc2cc(Cl)ccc12 | 23 µM (inactive) | 43 µM (inactive) | 31 µM (inactive) | 20.4 µM (inactive) | 34.8 µM (inactive) | 26.9 µM (inactive) | 25.4 µM (inactive) | 41.3 µM (inactive) | 49.1 µM (inactive)
24 | Cc1nc2ccccc2c(=O)n1-c1ccccc1I |  | > 100 µM (inactive) | 90.4 µM (inactive) |  |  |  | 82.4 µM (inactive) | > 100 µM (inactive) | 
25 | O=C(c1ccccc1)C1(Br)S(=O)(=O)OCCOS1(=O)=O | > 100 µM (inactive) | > 100 µM (inactive) | > 100 µM (inactive) | > 100 µM (inactive) |  | > 100 µM (inactive) | > 100 µM (inactive) | > 100 µM (inactive) | 
26 | CCOC(=O)C(=O)Nc1c(C)cccc1C | > 100 µM (inactive) | > 100 µM (inactive) | > 100 µM (inactive) | > 100 µM (inactive) | > 100 µM (inactive) | > 100 µM (inactive) | > 100 µM (inactive) | > 100 µM (inactive) | 
27 | CC1=C(c2nc3ccccc3s2)C(=O)OC1(C)C | > 100 µM (inactive) | > 100 µM (inactive) | > 100 µM (inactive) | > 100 µM (inactive) |  | > 100 µM (inactive) | > 100 µM (inactive) | > 100 µM (inactive) | > 100 µM (inactive)

From ChEMBL document CHEMBL1201862, “PubChem BioAssay data set” (2004)
